One experiment addresses T1, PI3K delta (PI3Kd) (Homo sapiens, UniProt O00329).
T1 construct: endogenous in cells; host or cells: Jurkat cells (ATCC TIB-152, clone E6-1), lysate
Description: kinobeads assay, PI3K delta (dot blot detection). Format: binding. The protocol:
(§1) The compounds of the present invention as described were tested in the mTOR kinobeads assay as described below. Briefly, test compounds (at various concentrations) and the affinity matrix (1:1 mixture of beads with immobilized phenylthiazole ligand 1 and beads with immobilized phenylmorpholin-chromen ligand; WO 2009/098021) were added to cell lysate aliquots and allowed to bind to the proteins in the lysate sample. After the incubation time the beads with captured proteins were separated from the lysate. Bound proteins were then eluted and the presence of mTOR, PI3K delta (PI3 Kd) and DNA-dependent protein kinase (DNA-PK) was detected and quantified using a specific antibody in a dot blot procedure and the Odyssey infrared detection system. Dose response curves for individual kinases were generated and IC50 values calculated. Kinobeads assays for PI3 kinases (WO-A 2008/015013) and for kinase selectivity profiling (WO 2009/098021) have been previously described.
(§2) The affinity matrix (beads with immobilized phenylmorpholin-chromen ligand) was washed two times with 15 ml of 1×DP buffer containing 0.2% NP40 (IGEPAL® CA-630, Sigma, #13021) and then resupended in 5.5 ml of 1×DP buffer containing 0.2% NP40 (10% beads slurry).
(§3) 5×DP buffer: 250 mM Tris-HCl pH 7.4, 25% Glycerol, 7.5 mM MgCl2, 750 mM NaCl, 5 mM Na3VO4, filter the 5×-lysis buffer through 0.22 μm filter and store in aliquots at −80° C. The 5×DP buffer is diluted to 1×DP buffer containing 1 mM DTT and 25 mM NaF.
(§4) Stock solutions of test compounds were prepared in DMSO. In a 96 well plate 30 μl solution of diluted test compounds at 5 mM in DMSO were prepared. Starting with this solution a 1:3 dilution series (9 steps) was prepared. For control experiments (no test compound) a buffer containing 2% DMSO was used. Compound CZC00018052 served as a positive control (PI-103; Calbiochem catalogue number 528100).
(§5) Jurkat cells (ATCC catalogue number TIB-152 Jurkat, clone E6-1) were grown in 1 litre Spinner flasks (Integra Biosciences, #182101) in suspension in RPMI 1640 medium (Invitrogen, #21875-034) supplemented with 10% Fetal Bovine Serum (Invitrogen) at a density between 0.15×10^6 and 1.2×10^6 cells/ml. Cells were harvested by centrifugation, washed once with 1×PBS buffer (Invitrogen, #14190-094) and cell pellets were frozen in liquid nitrogen and subsequently stored at −80° C.
(§6) Jurkat cells were homogenized in a Potter S homogenizer in lysis buffer: 50 mM Tris-HCl, 0.8% NP40, 5% glycerol, 150 mM NaCl, 1.5 mM MgCl2, 25 mM NaF, 1 mM sodium vanadate, 1 mM DTT, pH 7.5. One complete EDTA-free tablet (protease inhibitor cocktail, Roche Diagnostics, 1873580) per 25 ml buffer was added. The material was dounced 10 times using a mechanized POTTER S, transferred to 50 ml falcon tubes, incubated for 30 minutes on ice and spun down for 10 min at 20,000 g at 4° C. (10,000 rpm in Sorvall SLA600, precooled). The supernatant was transferred to an ultracentrifuge (UZ)-polycarbonate tube (Beckmann, 355654) and spun for 1 hour at 100.000 g at 4° C. (33.500 rpm in Ti50.2, precooled). The supernatant was transferred again to a fresh 50 ml falcon tube, the protein concentration was determined by a Bradford assay (BioRad) and samples containing 50 mg of protein per aliquot were prepared. The samples were immediately used for experiments or frozen in liquid nitrogen and stored frozen at −80° C.
(§7) Jurkat cell lysate (approximately 50 mg protein per plate) was thawed in a water bath at room temperature and then kept on ice. To the thawed cell lysate 1×DP 0.8% NP40 buffer containing protease inhibitors (1 tablet for 25 ml buffer; EDTA-free protease inhibitor cocktail; Roche Diagnostics 1873580) was added in order to reach a final protein concentration of 5 mg/ml total protein. The diluted cell lysate was stored on ice. […]

A further experiment addresses T2, mTOR (Homo sapiens, UniProt P42345).
T2 construct: endogenous in cells; host or cells: Jurkat cells (ATCC TIB-152, clone E6-1), lysate
As to the kind of experiment: mTOR kinobeads assay (dot blot detection). Format: binding. The protocol: as §1, §2, §3, §4, §5, §6, §7

For a further experiment, the target named is T3, PI3Kβ (Homo sapiens, UniProt P42338).
T3 construct: endogenous in cells; host or cells: Jurkat cells (ATCC TIB-152) lysate, the only lysate described
T3 sequence (P42338 whole entry): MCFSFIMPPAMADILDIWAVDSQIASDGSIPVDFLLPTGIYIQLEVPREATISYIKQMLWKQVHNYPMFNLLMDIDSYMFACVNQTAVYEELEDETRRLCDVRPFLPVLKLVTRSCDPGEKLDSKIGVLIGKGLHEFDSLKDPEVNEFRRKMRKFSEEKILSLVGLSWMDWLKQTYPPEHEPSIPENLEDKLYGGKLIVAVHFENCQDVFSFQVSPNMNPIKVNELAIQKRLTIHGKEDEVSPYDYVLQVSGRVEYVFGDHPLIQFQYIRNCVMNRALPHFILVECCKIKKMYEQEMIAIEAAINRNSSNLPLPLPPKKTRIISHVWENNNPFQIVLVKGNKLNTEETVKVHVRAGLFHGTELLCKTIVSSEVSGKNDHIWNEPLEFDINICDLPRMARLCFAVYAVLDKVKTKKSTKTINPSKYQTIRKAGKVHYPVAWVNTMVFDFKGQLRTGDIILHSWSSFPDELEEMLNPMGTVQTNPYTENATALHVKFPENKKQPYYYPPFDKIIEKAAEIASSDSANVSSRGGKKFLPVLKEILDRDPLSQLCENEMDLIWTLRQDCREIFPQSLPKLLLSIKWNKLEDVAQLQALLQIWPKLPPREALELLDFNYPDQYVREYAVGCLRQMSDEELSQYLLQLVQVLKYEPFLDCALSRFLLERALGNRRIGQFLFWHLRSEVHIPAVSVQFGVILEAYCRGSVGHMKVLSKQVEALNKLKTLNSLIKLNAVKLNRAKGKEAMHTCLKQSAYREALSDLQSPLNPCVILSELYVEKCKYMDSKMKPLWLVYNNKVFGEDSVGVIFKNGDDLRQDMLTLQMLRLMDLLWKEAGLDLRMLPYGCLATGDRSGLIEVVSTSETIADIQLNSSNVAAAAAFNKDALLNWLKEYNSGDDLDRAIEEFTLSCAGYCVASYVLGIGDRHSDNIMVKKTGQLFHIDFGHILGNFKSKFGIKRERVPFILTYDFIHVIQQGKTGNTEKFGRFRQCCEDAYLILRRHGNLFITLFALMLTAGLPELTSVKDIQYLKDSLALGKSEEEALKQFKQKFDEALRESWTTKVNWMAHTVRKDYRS
T3 sequence (P27986 whole entry partner): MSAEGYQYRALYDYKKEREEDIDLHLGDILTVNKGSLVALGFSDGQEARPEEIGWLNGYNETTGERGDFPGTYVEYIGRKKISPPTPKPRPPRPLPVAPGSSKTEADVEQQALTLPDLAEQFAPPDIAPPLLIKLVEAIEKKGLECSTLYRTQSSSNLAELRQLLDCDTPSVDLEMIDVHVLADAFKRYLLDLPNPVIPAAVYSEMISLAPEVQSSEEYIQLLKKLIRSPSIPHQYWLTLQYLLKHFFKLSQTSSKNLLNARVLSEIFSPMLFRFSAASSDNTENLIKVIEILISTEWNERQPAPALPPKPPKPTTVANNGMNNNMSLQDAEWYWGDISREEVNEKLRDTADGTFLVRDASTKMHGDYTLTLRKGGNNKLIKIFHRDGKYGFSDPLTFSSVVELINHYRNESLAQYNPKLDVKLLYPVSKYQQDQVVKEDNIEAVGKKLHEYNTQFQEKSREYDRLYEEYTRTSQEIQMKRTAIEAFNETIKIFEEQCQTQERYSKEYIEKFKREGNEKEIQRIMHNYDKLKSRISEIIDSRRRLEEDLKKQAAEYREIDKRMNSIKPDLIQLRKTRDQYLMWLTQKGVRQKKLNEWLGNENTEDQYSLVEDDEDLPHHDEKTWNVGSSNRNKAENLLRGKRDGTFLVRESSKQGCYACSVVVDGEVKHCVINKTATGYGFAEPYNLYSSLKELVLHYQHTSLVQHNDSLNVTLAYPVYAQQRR
Description: kinobeads assay, PI3K beta (dot blot detection). In kind it is binding. As to conditions: Table 4, read-out: Inhibition values (IC50) PI3Kb.

The next experiment deals with T4, PI3Kα (Homo sapiens, UniProt P42336).
T4 construct: endogenous in cells; host or cells: Jurkat cells (ATCC TIB-152) lysate, the only lysate described
T4 sequence (P42336 whole entry): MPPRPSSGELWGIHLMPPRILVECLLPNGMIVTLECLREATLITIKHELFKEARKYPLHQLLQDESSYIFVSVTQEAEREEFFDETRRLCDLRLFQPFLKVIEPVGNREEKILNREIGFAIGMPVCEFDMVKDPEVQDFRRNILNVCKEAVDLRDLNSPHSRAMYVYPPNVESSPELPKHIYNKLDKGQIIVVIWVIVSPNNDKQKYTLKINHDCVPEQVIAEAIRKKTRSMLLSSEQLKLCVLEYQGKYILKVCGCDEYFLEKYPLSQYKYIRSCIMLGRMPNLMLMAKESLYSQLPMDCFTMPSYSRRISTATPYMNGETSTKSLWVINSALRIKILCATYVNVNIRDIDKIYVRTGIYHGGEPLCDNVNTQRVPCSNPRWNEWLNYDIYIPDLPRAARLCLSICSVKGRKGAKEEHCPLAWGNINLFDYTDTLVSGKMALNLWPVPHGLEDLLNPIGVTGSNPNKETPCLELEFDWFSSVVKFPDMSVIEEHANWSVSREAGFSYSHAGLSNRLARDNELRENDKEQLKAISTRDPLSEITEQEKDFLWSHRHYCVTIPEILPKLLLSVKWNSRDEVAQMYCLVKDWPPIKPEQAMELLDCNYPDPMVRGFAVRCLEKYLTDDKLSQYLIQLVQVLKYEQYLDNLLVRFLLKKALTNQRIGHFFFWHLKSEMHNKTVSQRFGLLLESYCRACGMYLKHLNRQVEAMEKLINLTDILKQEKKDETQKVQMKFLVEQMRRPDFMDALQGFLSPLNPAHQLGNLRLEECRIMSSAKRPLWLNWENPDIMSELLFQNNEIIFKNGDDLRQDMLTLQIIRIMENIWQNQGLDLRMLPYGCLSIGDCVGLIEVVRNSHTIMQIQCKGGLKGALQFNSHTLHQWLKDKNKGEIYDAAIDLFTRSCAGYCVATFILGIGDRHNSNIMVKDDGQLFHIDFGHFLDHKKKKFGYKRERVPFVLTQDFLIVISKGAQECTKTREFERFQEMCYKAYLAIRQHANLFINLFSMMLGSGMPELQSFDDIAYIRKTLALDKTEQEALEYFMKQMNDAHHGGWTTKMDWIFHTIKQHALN
T4 sequence (P27986 whole entry partner): as the sequence (P27986 whole entry partner) above
As to the kind of experiment: kinobeads assay, PI3K alpha (dot blot detection). As to conditions: Table 4, read-out: Inhibition values (IC50) PI3Ka. In kind it is binding.

In experiment [1] the test system is S6RP serine-240/244 phosphorylation in HEK293T/17 cells. Description: In vitro phospho-S6 cellular assay (pS6RP S240/244). To be noted: Homo sapiens, Table 6, 2 hours, S6RP Ser240/244, read-out: pS6 (phospho-S6 cell assay data, activity level). In kind it is cell-based. The text has this: In Vitro Phospho-S6 and Phospho-Akt Cellular Assay
Activation of mTOR signaling results in phosphorylation of several downstream targets. In cells, mTOR exists in two different protein complexes. The mTOR Complex-1 (mTORC1) phosphorylates and activates S6 Kinase 1 (S6K1) and S6 Kinase 2 (S6K2) (also known as p70S6K) which then phosphorylate S6 Ribosomal Protein (S6RP) (also known as RPS6). S6RP is phosphorylated on serine 235, serine 236, serine 240 and serine 244 by both pS6K1 and pS6K2. The mTOR Complex-2 (mTORC2) phosphorylates AKT on serine 473 which activates the AKT signaling pathway.
The assay measures a test compound's inhibition of S6RP serine-240/244 phosphorylation and inhibition of Akt serine-473 phosphorylation in human embryonic kidney derived HEK293T/17 cells (ATCC CRL-11268).
The HEK293T/17 cell line is maintained in DMEM media (Invitrogen catalogue number 41965-039) supplemented with 10% FCS at 37° C. in a 5% CO2 humidified incubator.
Cells are seeded in 96-well plates at 40,000 cells/well (pS6RP S240/244 assay) or 80,000 cells/well (pAkt 5473 assay) in 90 μl growth media (DMEM, 2% FCS). Plates are incubated for 1 hour in a humidified incubator to allow the cells to adhere. Cells are treated with 8 concentrations of test compounds or DMSO alone for controls (final DMSO concentration 0.1%) and incubated at 37° C. for 2 hours. Then 20 μl of 5× concentrated lysis buffer (750 mM NaCl, 100 mM Tris pH7.4, 5 mM EDTA, 5 mM EGTA, 5% Triton X-100) is added, plates are sealed and incubated for 15 minutes at 4° C. with gentle shaking. After cell lysis, 25 μl cell lysate is transferred to a MesoScale plate coated with an antibody to pS6RP Ser240/244 (MesoScale Discovery K150DGD-3) or an antibody to pAkt Ser 473 (MesoScale Discovery K151DGD-3). Plates have been blocked before by incubation with 150 μl MesoScale Discovery Blocking Solution-A for 1 hour at room temperature followed by washing with 150 μl 1× Tris wash buffer per well. After the transfer of the cell lysate to the MSD plate, the pS6RP (or pAkt) protein is captured on the coated antibody by incubation at room temperature for 1 hour with gentle shaking. After the capture step the plate is washed three times with 150 μl of 1× Tris wash buffer per well. Then 25 μl detection antibody conjugated with a Sulfo-Tag is added and incubated for 1 hour at room temperature with gentle shaking. Subsequently the antibody solution is removed and the plate is washed 3 times with 150 μl 1× Tris wash buffer per well and 150 μl Read buffer is added. The plates are analysed on a MSD 2400 Plate Reader (MesoScale Discovery). Data analysis is performed using nonlinear regression for a sigmoidal dose-response with a variable slope.

For experiment [2], the target named is T5, DNA-dependent protein kinase (DNA-PK) (Homo sapiens, UniProt P78527).
T5 construct: endogenous in cells; host or cells: Jurkat cells (ATCC TIB-152, clone E6-1), lysate
As to the kind of experiment: kinobeads assay, DNA-PK (dot blot detection). In kind it is binding. The protocol:
as §1, §2, §3, §4, §5, §6, §7

A further experiment addresses T6, PI3Kγ (Homo sapiens, UniProt P48736).
T6 construct: endogenous in cells; host or cells: Jurkat cells (ATCC TIB-152) lysate, the only lysate described
Description: kinobeads assay, PI3K gamma (dot blot detection). To be noted: Table 4, read-out: Inhibition values (IC50) PI3Kg. Format: binding.

The mark [3] stands for this setting: Table 2, Jurkat cell lysate, read-out: Inhibition values (IC50) PI3Kd.
Where [4] appears, read: Table 4, read-out: Inhibition values (IC50) PI3Kd.
Where [5] appears, read: Table 2, Jurkat cell lysate, read-out: Inhibition values (IC50) mTor.
Where [6] appears, read: Table 4, read-out: Inhibition values (IC50) mTOR.
Where [7] appears, read: Table 2, Jurkat cell lysate, read-out: Inhibition values (IC50) DNAPK.
Setting [8] is: Table 4, read-out: Inhibition values (IC50) DNAPK.

SMILES strings stand for the structures. Where two headings read alike, the source gives them in different places.

T6 sequence (P48736 whole entry): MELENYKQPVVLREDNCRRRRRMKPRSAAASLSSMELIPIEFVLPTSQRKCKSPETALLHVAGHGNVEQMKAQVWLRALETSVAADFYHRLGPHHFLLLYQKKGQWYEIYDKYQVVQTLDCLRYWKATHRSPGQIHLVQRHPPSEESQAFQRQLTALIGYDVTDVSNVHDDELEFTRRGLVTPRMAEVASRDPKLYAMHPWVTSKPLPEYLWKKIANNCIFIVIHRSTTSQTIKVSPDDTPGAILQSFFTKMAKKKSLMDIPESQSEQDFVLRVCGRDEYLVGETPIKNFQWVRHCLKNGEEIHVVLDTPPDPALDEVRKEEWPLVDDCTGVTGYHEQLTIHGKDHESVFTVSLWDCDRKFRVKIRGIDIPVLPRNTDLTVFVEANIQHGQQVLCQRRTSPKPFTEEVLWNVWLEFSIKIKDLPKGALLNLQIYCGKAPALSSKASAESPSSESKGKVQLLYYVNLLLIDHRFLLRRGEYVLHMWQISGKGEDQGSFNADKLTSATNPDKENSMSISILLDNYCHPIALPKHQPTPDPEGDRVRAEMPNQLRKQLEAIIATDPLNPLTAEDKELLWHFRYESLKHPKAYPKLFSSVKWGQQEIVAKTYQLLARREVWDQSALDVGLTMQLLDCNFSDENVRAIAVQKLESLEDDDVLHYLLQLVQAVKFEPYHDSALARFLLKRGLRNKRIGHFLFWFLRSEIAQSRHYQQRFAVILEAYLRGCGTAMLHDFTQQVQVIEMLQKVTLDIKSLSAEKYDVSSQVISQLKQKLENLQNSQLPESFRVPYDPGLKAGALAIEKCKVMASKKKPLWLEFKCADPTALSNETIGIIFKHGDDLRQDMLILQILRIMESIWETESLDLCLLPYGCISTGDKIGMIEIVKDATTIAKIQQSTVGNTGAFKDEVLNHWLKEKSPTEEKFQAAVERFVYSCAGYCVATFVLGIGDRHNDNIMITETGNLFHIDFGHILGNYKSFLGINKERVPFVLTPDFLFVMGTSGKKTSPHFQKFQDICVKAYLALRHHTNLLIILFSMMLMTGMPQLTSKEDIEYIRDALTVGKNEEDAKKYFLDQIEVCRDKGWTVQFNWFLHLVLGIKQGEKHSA
T1 sequence (O00329 whole entry): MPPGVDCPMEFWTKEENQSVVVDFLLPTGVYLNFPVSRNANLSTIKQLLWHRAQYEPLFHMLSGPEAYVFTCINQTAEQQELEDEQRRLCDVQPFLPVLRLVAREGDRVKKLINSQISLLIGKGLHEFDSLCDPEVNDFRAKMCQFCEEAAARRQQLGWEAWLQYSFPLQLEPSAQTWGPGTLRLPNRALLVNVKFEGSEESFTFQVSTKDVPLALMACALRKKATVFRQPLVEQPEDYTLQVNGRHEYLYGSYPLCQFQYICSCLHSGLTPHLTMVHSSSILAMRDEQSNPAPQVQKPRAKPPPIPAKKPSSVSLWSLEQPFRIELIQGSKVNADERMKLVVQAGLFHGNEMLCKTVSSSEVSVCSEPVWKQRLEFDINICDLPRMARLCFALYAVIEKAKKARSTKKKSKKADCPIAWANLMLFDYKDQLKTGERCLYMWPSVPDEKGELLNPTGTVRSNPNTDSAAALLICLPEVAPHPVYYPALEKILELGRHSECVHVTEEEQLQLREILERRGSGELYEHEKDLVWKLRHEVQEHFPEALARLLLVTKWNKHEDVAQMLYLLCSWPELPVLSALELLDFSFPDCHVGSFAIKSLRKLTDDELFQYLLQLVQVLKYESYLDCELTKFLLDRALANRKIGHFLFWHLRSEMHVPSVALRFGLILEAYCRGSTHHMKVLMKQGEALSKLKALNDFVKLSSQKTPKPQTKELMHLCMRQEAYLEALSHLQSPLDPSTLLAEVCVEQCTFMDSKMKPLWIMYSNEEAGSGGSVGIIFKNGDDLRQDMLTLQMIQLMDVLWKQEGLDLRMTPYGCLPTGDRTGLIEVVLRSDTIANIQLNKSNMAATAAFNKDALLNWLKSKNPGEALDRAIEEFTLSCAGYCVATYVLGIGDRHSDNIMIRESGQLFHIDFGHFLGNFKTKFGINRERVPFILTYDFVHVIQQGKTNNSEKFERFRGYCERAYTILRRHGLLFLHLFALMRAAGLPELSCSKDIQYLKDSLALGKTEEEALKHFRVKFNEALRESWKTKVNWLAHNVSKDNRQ
T1 sequence (P27986 whole entry partner): as the sequence (P27986 whole entry partner) above

On to `C[C@H]1COCCN1c1cc(-c2ccncc2F)nc(-c2ccc(NC(=O)NC3CC3)cc2)n1` [Example 24, (S)-1-cyclopropyl-3-(4-(4-(3-fluoropyridin-4-yl)-6-(3-methylmorpholino)pyrimidin-2-yl)phenyl)urea], for which the IC50 was not below 10 µM on PI3K delta (PI3Kd) (setting [3]); not below 10 µM at PI3K delta (PI3Kd) (setting [4]); 0.1 to 1 µM on mTOR (setting [5]); 0.1 to 1 µM at mTOR (setting [6]); not below 10 µM on PI3Kβ; not below 10 µM at PI3Kα. For the same molecule, the IC50 was 0.1 to 1 µM in experiment [1], not below 10 µM in experiment [2] (setting [7]), not below 10 µM in experiment [2] (setting [8]) and not below 10 µM on PI3Kγ.

`C[C@H]1COCCN1c1cc(-c2ccncc2)nc(-c2ccc(NC(=O)NC3CC3)cc2)n1` [Example 25, (S)-1-cyclopropyl-3-(4-(4-(3-methylmorpholino)-6-(pyridin-4-yl)pyrimidin-2-yl)phenyl)urea]: the IC50 on PI3K delta (PI3Kd) (setting [3]) was not below 10 µM; on PI3K delta (PI3Kd) (setting [4]), not below 10 µM; on mTOR (setting [5]), 0.1 to 1 µM; on mTOR (setting [6]) it was 0.1 to 1 µM; on PI3Kβ, not below 10 µM; on PI3Kα, not below 10 µM. For the same molecule, the IC50 was 0.1 to 1 µM in experiment [1], not below 10 µM in experiment [2] (setting [7]), not below 10 µM in experiment [2] (setting [8]) and not below 10 µM at PI3Kγ.

For `O=C(Nc1ccc(-c2nccc(N3CCOCC3)n2)cc1)NC1CC1` [Example 26, 1-cyclopropyl-3-(4-(4-morpholinopyrimidin-2-yl)phenyl)urea], the IC50 is not below 10 µM at PI3K delta (PI3Kd) (setting [3]); not below 10 µM at PI3K delta (PI3Kd) (setting [4]); 0.1 to 1 µM on mTOR (setting [5]); 0.1 to 1 µM at mTOR (setting [6]); 1 to 10 µM at PI3Kβ; not below 10 µM on PI3Kα. For the same molecule, the IC50 in experiment [1] is 0.1 to 1 µM; in experiment [2] (setting [7]), 1 to 10 µM; in experiment [2] (setting [8]), 1 to 10 µM; on PI3Kγ, not below 10 µM.

In the case of `O=C(Nc1ccc(-c2ccnc(N3CCOCC3)n2)cc1)NC1CC1` [Example 28, 1-cyclopropyl-3-(4-(2-morpholinopyrimidin-4-yl)phenyl)urea], the IC50 on PI3K delta (PI3Kd) (setting [3]) is not below 10 µM; on PI3K delta (PI3Kd) (setting [4]) it was not below 10 µM; at mTOR (setting [5]) it was 1 to 10 µM; on mTOR (setting [6]) it was 1 to 10 µM; at PI3Kβ, not below 10 µM; on PI3Kα, not below 10 µM. For the same molecule, the IC50 in experiment [1] is 1 to 10 µM; in experiment [2] (setting [7]), not below 10 µM; in experiment [2] (setting [8]) it was not below 10 µM; at PI3Kγ it was not below 10 µM.

As for `CCNC(=O)Nc1ccc(-c2ccnc(N3CCOCC3)n2)cc1` [Example 29, 1-ethyl-3-(4-(2-morpholinopyrimidin-4-yl)phenyl)urea], the IC50 on PI3K delta (PI3Kd) (setting [3]) was not below 10 µM; at PI3K delta (PI3Kd) (setting [4]), not below 10 µM; at mTOR (setting [5]), 1 to 10 µM; at mTOR (setting [6]), 0.1 to 1 µM; at PI3Kβ it was 1 to 10 µM; on PI3Kα, 1 to 10 µM. Further, the IC50 in experiment [1] was 0.1 to 1 µM; in experiment [2] (setting [7]) it was 1 to 10 µM; in experiment [2] (setting [8]), 1 to 10 µM; on PI3Kγ, not below 10 µM.

With `CNC(=O)Nc1ccc(-c2ccnc(N3CCOCC3)n2)cc1` [Example 30, 1-methyl-3-(4-(2-morpholinopyrimidin-4-yl)phenyl)urea], the IC50 at PI3K delta (PI3Kd) (setting [3]), at PI3K delta (PI3Kd) (setting [4]), at mTOR (setting [5]), on mTOR (setting [6]), at PI3Kβ and on PI3Kα was 1 to 10 µM each time. Besides, the IC50 in experiment [1] is 1 to 10 µM; in experiment [2] (setting [7]), 1 to 10 µM; in experiment [2] (setting [8]), 1 to 10 µM; on PI3Kγ it was not below 10 µM.

As for `C[C@H]1COCCN1c1ccnc(-c2ccc(NC(=O)NC3CC3)cc2)n1` [Example 35, (S)-1-cyclopropyl-3-(4-(4-(3-methylmorpholino)pyrimidin-2-yl)phenyl)urea], the IC50 on PI3K delta (PI3Kd) (setting [3]) was not below 10 µM; at PI3K delta (PI3Kd) (setting [4]), not below 10 µM; at mTOR (setting [5]), 0.1 to 1 µM; on mTOR (setting [6]) it was 0.1 to 1 µM; at PI3Kβ it was not below 10 µM; on PI3Kα, not below 10 µM. Further, the IC50 in experiment [1] was 0.1 to 1 µM; in experiment [2] (setting [7]), not below 10 µM; in experiment [2] (setting [8]), not below 10 µM; on PI3Kγ, not below 10 µM.

For the origin of these results see patent publication US9249129B2, “Morpholino substituted urea derivatives as mTOR inhibitors” (CELLZOME LIMITED, priority 2010, dated 2016).
